For one data set, the system named is tobacco leaves. Briefly: Control infiltration of tobacco leaves with compounds alone (necrosis). The following applies: compound at the final 1 mM concentration, no NLP protein, 5 % DMSO (Figure 4).
For a further data set, the system named is Phytophthora infestans. The data set is classed as in vivo, Phytophthora infestans (strain 88069). The following applies: for growth of the pathogen P. infestans on potato leaves, visual analysis: 1 mM compound in 10 µL drops with 5 × 10^4 mL^-1 zoospores, 4 days, 18 °C, vs control compound (Figure 6A); for amount of pathogen DNA by real-time PCR, control samples vs samples with compound: 1 mM compound, potato leaves 4 days after infection, Student's t-test, *** P <0.001 (Figure 6B). (Quantitative PCR measures a nucleic acid by following its amplification.)

Entries after “also recorded” stand apart in the source; their conditions may differ.

Description for tobacco leaves: This biological test may be used to assess the impact of compounds on the functionality of NLPs. The NLP protein solution is injected in the absence or presence of the compounds into tobacco leaves of healthy plants. The plants are then observed for 1-3 days and checked for the presence of necrosis.
Compounds: Compounds were prepared as stock solutions with a concentration of 10 mM in DMSO. Appropriate working solutions were prepared by appropriate dilution of the stock solution. The concentration of DMSO in the test solution was 5 %.
Tobacco plants: Tobacco plants (Nicotiana tabacum White Burley) were cultured in chambers for growing plants under controlled conditions of light, humidity and temperature up to the age of 5-7 weeks.
Protein solution, compound and appropriate volume of ultrapure water were mixed in Eppendorf tubes. The mixture was mixed well and injected in the lower epidermis of tobacco leaves. We have injected 50 µL of solution. The area of injected solution was labelled on tobacco leaves. We used ultrapure water, 5 % DMSO, protein solutions of NLPs at different concentrations and appropriate dilutions of compounds as control solutions. The area on the lower side of the leaf, which was infiltrated with solutions, was photographed immediately after injection, and then after 24, 48 and 72 hours. On the third day the plant leaf was photographed also from the top side.

For `Cc1ccc2occ(C3NC(C(=O)O)CS3)c(=O)c2c1` (stereo not drawn) [Compound I, 2-(6-methyl-4-oxochromen-3-yl)-1,3-thiazolidin-3-ium-4-carboxylate], the “necrosis of tobacco leaves caused by compound solution alone” value with tobacco leaves is “did not cause necrosis; also recorded: Necrosis was not caused”. In the data set with Phytophthora infestans, the “growth of the pathogen P. infestans on potato leaves, visual analysis” value was “able to inhibit growth of the pathogen” and the “amount of pathogen DNA by real-time PCR, control samples vs samples with compound” value is “statistically significant amounts of pathogen DNA in control samples”.

Regarding `COc1ccc(Nc2ccccc2C(=O)O)cc1` [Compound IIa, 2-[(4-methoxyphenyl)amino]benzoic acid], the “necrosis of tobacco leaves caused by compound solution alone” value with tobacco leaves is reported as “did not cause necrosis; also recorded: Necrosis was not caused”. Moreover, in the data set with Phytophthora infestans, the “growth of the pathogen P. infestans on potato leaves, visual analysis” value is given as “able to inhibit growth of the pathogen” and the “amount of pathogen DNA by real-time PCR, control samples vs samples with compound” value is “statistically significant amounts of pathogen DNA in control samples”.

(Values after EP3315028B1, “USE OF INHIBITORS OF NLP PROTEINS AS PHYTOPHARMACEUTICALS FOR PLANT PATHOGEN CONTROL” (Kemijski Institut, priority 2016, dated 2018).)
